Experimental data from ChEMBL document CHEMBL1201862, “PubChem BioAssay data set” (2004).
Activity calls are given as the source filed them. No stated cut-off is given here; in the data, actives have a measured IC50 and inactives only a lower limit.

These molecules were tested against Envelope glycoprotein gp160 (Human immunodeficiency virus 1, UniProt Q6QLK5) (assay: cell-free HIV fusion peptide-binding blockers – biochemical, uHTS, fluorescence dequenching, […] (AID 1986)).
Envelope glycoprotein gp160, sequence (Q6QLK5 whole entry, the tested form may be a part): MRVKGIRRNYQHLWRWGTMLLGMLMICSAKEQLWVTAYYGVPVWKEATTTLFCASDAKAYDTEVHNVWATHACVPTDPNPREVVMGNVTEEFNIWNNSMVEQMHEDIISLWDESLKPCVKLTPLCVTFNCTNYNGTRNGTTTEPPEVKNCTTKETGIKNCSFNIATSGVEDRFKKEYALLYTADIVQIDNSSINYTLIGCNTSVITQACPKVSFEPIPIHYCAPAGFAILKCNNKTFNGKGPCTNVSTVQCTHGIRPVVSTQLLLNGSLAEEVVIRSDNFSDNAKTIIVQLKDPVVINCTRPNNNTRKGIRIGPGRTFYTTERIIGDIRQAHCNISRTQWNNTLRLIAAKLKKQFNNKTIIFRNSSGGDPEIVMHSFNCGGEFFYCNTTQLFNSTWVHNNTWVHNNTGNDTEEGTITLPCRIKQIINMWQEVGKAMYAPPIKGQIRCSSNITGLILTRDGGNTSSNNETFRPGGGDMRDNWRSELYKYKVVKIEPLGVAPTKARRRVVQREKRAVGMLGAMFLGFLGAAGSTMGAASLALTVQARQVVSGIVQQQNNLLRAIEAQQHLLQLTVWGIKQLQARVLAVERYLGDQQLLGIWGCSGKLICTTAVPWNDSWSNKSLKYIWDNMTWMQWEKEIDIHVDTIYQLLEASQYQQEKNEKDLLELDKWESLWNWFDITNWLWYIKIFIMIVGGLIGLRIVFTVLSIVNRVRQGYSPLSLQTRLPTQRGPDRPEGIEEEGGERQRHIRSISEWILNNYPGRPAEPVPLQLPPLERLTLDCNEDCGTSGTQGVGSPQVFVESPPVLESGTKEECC
In the case of `N#Cc1c(-c2ccccc2)nc(SCc2ccc(Cl)cc2)[nH]c1=O`, the IC50 is reported as 22.5 µM (active). In the case of `COc1cc(/C=N/Nc2ccc(Cl)c(C(=O)O)c2)ccc1OC(=O)c1ccccc1F`, the IC50 is reported as 26.2 µM (active). For `COc1ccc(/C=C2/SC(=O)N(CCCCCC(=O)Nc3ccccc3C(=O)O)C2=S)cc1`, the IC50 was 18 µM (active).
